From patent US20220304945A1, “METHODS OF TREATING METABOLIC SYNDROME RELATED CONDITIONS USING RETINOIC ACID RECEPTOR AGONISTS” (Cornell University, priority 2014, published 2022)
“Also recorded” adds a separate entry of the source.

How the values were obtained:
Assay type in all cases: in vivo, mouse
[1] = test system: pancreatic islets (β-cells); assay: Pancreatic islet size (insulin immunofluorescence) and pancreatic insulin content (ELISA); conditions: Ob/Ob and Db/Db models
Experimental: Immunofluorescence and Immunostaining Microscopy-Paraffin embedded pancreatic tissue sections were incubated with antibodies against: insulin (mouse monoclonal 1:300, #1061, Beta Cell Biology Consortium). We utilized Alexa-fluor 488 conjugated anti-mouse secondary antibody (1:500) (Invitrogen, Carlsbad, Calif.) for immunofluorescence labeling of insulin followed by visualization using a Nikon TE2000 inverted fluorescence microscope (Nikon, Inc).
Pancreatic Insulin Measurements-Pancreatic insulin levels were measured in lysates from pancreatic tissues using an ultrasensitive Insulin ELISA Kit (Alpco, Inc. Salem, N.H.) as per the manufacturers' instructions. Insulin concentrations were normalized to pancreatic protein concentrations determined using the DC protein assay (Bio-Rad, Inc. Hercules, Calif.) according to the manufacturers' protocol. Endocrine hormones levels are reported as mean±standard error of the mean (S.E.M) and P-values calculated using one-way analysis of variance followed by Bonferroni multiple comparison test post-hoc analysis.
Measurement of Pancreatic Endocrine Cell Mass.—Pancreatic endocrine cell mass was determined using a direct point counting method as previously described. […]

RARβ2 mRNA = assay: Semi-quantitative PCR of pancreas, LRAT −/− vitamin A deficient mice; conditions: treated 8 weeks
Experimental: FIG. 10. Gene expression of RARβ2 in pancreatic tissue from LRAT −/− vitamin A sufficient mice (VAS, normal control diet), LRAT −/− vitamin A deficient (VAD) mice, and LRAT −/− vitamin A deficient (VAD) mice treated with AC261066 for 8 weeks.
Semi-Quantitate PCR. Total RNA was extracted from mouse tissues using TRIzol reagent (Life technologies) and (1 μg) was used to synthesize cDNA. cDNA synthesis was performed at 42° C. for 1 h in a final volume of 20 μl using qScript (Quanta, MD). Semi-quantitative PCR were performed Taq DNA polymerase (Invitrogen, CA). Three step PCR was run as follows: 94° C. for 30 s, 58-64° C. for 45 s for primer annealing and 72° C. for 1 min for primer extension. The number of cycles for each primer pair for amplification in the linear range was determined experimentally. PCR products were resolved on 2% agarose gels and visualized by staining with ehtidium bromide. Primers for gene expression used were as follows: […]

HFD-fed C57/BL6 mice = assay: Acute administration (8 days) to HFD-fed mice: body weight, intake, random glucose, GTT, ITT
Experimental: FIG. 31. Acute administration of Retinoic Acid Receptor β (RARβ) agonist AC261066 reverses high fat induced glucose intolerance and insulin resistance. A-C) Body weights, water and food intake of wild type C57/B16 male mice after 3 months of being fed either: a standard chow (13% Kcal/fat) diet (Wt Con, n=4), a high fat (45% Kcal/fat) diet (HFD, n=4) or 3 months of a HFD mice plus 8 days of administration of the RARβ agonist AC261066 (n=4) in their drinking water at a dose of 5.4 mg/Kg BW/day. On day 8 mice were tested for glucose intolerance and insulin resistance. D and E) Random glucose and glucose tolerance test (GTT) of mice described in A. F) Insulin tolerance test of mice described in A.
Metabolic Measurements-Glucose tolerance was performed using an intraperitoneal glucose tolerance test (GTT) as previously described (Trasino et al., Vitamin A Deficiency Causes Hyperglycemia and Loss of Pancreatic β-Cell Mass, J Biol Chem. 2014 Dec. 1. pii: jbc.M114.616763). […] Tail vein blood glucose was measured at 20, 40, 60 and 120 minutes after injection using a FreeStyle Lite Blood Glucose Monitoring System (Abbott Diabetes Care, Inc. Alameda, Calif.). To determine insulin secretion responses to glucose, serum fractions were isolated between 0-60 minutes post glucose injections and insulin concentrations were measured using an Ultrasensitive Insulin ELISA Kit (Alpco, Inc. Salem, N.H.). […]

Ob/Ob and Db/Db mice = assay: Metabolic studies (body weight, GTT, insulin secretion, ITT) in Ob/Ob and Db/Db mice, 8 weeks

Which pancreatic insulin content [1] does the source give for `CCCCOCCOc1nc(-c2ccc(C(=O)O)c(F)c2)sc1C` [AC261066] here?
Its pancreatic insulin content is “diminishes”.

And the “number of large pancreatic islets (enlarged β-cells)” value ([1]; HF-fed mice)?
Its value is “diminishes”.

What about the “pancreatic RARβ2 mRNA level” value (RARβ2 mRNA) of the same compound?
The value was “increased”.

What about the random glucose levels (HFD-fed C57/BL6 mice; after 24 hours of administration) of the same compound?
The random glucose levels was “significant reductions”.

And the “hyperglycemia (glucose intolerance) and insulin resistance” value (HFD-fed C57/BL6 mice; after 8 days of administration)?
The value was “reverses; also recorded: significant reductions”.

And the pancreatic insulin secretion (Ob/Ob and Db/Db mice; Ob/Ob mice)?
The pancreatic insulin secretion was “decreased”.

What about the body weights (Ob/Ob and Db/Db mice; genetically obese and diabetic Ob/Ob and Db/Db mice) of the same compound?
Its body weights is “significant reductions”.
